Source: patent US20050279350A1, “Methods and apparatus for relieving headaches, rhinitis and other common ailments” (priority 1999, published 2005)
“And” between values parts separate entries of the source, which are not always exact repeats. Equal entries are not always repeated. Where two headings read alike, the source gives them in different places. Marks after values point to notes of the source that are not given here.

System: human subjects with migraine and tension-type headaches, jaw pain
Assay type: in vivo
Conditions: for Est. Rate / Est. Total Dose / Number of Doses / Single Dose Duration / Total Dose / Total Treatment Time: self-selected effective dose; for 24-hr. Recur Rate / After Effects / Symptom Free, Minutes Post-Treatment / Symptom, Relief, Minutes Post-Treatment: moderate; for range of average dose duration / range of volume of gas: across severities
Source text: The test device was a hand-held, multi-dose, disposable, dispenser that was approximately 3 to 4 inches long and 6/8 to ⅞ inches in diameter constructed as described above. The device consisted of a plastic twist-top flow regulator mounted on top of a pressurized steel cartridge containing liquid carbon dioxide. The tip of the flow regulator has a nosepiece that is the optimal size and configuration to place against and seal off a nostril for administration of the gas. In a number of subjects, the effective nasal and oral carbon dioxide flow rates, and maximum tolerable nasal and oral flow rates, were measured using a laboratory apparatus. This apparatus consisted of a flow regulator connected via tubing to a flow meter and a large tank of carbon dioxide. These flow data were used, together with the number of seconds gas was administered during therapy, to calculate the estimated dose of gas in milliliters.
Of the total of 15 subjects included in the analysis, 11 used the treatment for 35 headaches and 9 subjects used it for 9 allergy attacks. […] subjects treated both headache and allergy but on different days. The subjects included adults, elderly, and children of both sexes in good general health, having mild, moderate, and severe headaches or having allergies to plant, animal, or airborne allergens. The device was used to treat migraine and tension-type headaches, jaw pain, and allergies (allergic rhinitis, with symptoms that included sinus congestion, sneezing, and itchy throat and eyes). There was no limitation on the duration of symptoms before treatment with the device. Subjects with no prior use of the device and those who have used it (to treat allergy symptoms) previously were included.
Carbon dioxide (100%) was administered nasally by the subject for a few seconds via a nostril to fill the nasal passages while holding their breath, or taking breaths of room air occasionally if the dose was lengthy. The gas exited the other nostril. Such nasal administration is similar to presently marketed nasal inhalers except that the administered gas was not inhaled. […] Subjects took as many doses as they needed for relief. It is important to note that there were no number of doses, duration of dose, time between doses, or gas flow rate specified for the user. Subjects chose their own regimen for symptom relief. Similarly, in medical practice today, gas therapy is a “titrate to effect” therapy without a specified dosage.
The International Headache Society (IHS) divides headache intensity into three categories: mild, moderate, and severe. The rating of the intensity level depends on the extent to which the headache interferes with the ability to function. […] The IHS uses headache relief at two hours as its primary outcome measure for present-day headache drug studies. Since therapy of the present invention acts much faster than present-day drugs, the primary outcome measure selected for this analysis was headache relief at 30 minutes. Each of the headache outcome measures used for this analysis is as follows: • Headache relief efficacy at 1, 5, 15, and 30 minutes post-treatment—headache relief efficacy is obtained when a pre-treatment headache severity of mild, moderate, or severe severity is improved to a post-treatment severity of none, mild, or moderate respectively. • Headache free efficacy at 1, 5, 15, and 30 minutes post-treatment—headache free efficacy is obtained when a pre-treatment headache of mild, moderate, or severe severity is improved to a post-treatment severity of none. • Headache recurrence within 24 hours post-treatment—recurrence within 24 hours is defined as no or mild headache severity after treatment that then worsened to moderate or severe headache severity within 24 hours after treatment with no use of rescue medication before the worsening. • Safety parameter—safety is defined as no adverse after-effects of treatment.

[1] = Headache-All, mild, severe, 1 min post-treatment
[2] = Headache-All, mild, severe, 5 min post-treatment
[3] = Headache-All, mild, severe, 15 min post-treatment
[4] = Headache-All, mild, severe, 30 min post-treatment
[5] = Headache-All, severe - IHS criteria
[6] = Headache-All, severe - IHS criteria, 1 min post-treatment
[7] = Headache-All, severe - IHS criteria, 5 min post-treatment
[8] = Headache-All, severe - IHS criteria, 15 min post-treatment
[9] = Headache-All, severe - IHS criteria, 30 min post-treatment
[10] = Migraine, mild, severe, 1 min post-treatment
[11] = Migraine, mild, severe, 5 min post-treatment
[12] = Migraine, mild, severe, 15 min post-treatment
[13] = Migraine, mild, severe, 30 min post-treatment
[14] = Migraine, severe - IHS criteria
[15] = Migraine, severe - IHS criteria, 1 min post-treatment
[16] = Migraine, severe - IHS criteria, 5 min post-treatment
[17] = Migraine, severe - IHS criteria, 15 min post-treatment
[18] = Migraine, severe - IHS criteria, 30 min post-treatment
[19] = Tension, mild, severe, 1 min post-treatment
[20] = Tension, mild, severe, 5 min post-treatment
[21] = Tension, mild, severe, 15 min post-treatment
[22] = Tension, mild, severe, 30 min post-treatment
[23] = Tension, severe - IHS criteria, 1 min post-treatment
[24] = Tension, severe - IHS criteria, 5 min post-treatment
[25] = Tension, severe - IHS criteria, 15 min post-treatment
[26] = Tension, severe - IHS criteria, 30 min post-treatment

O=C=O [carbon dioxide]
headache recurrence 24 hours post-treatment (35 headaches): no instances of headache recurrence
Est. Rate (Headache-All): 4 mL/s
Est. Total Dose (Headache-All): 124 mL
Number of Doses (Headache-All): 2 #
Single Dose Duration (Headache-All): 15 s
Total Dose (Headache-All): 32 s
Total Treatment Time (Headache-All): 7 min
24-hr. Recur Rate (Headache-All, mild, severe): 0%
After Effects (Headache-All, mild, severe): 0%
Symptom Free, Minutes Post-Treatment [1]: 31%
Symptom, Relief, Minutes Post-Treatment [1]: 31%
Symptom Free, Minutes Post-Treatment [2]: 60%
Symptom, Relief, Minutes Post-Treatment [2]: 63%
Symptom Free, Minutes Post-Treatment [3]: 74%
Symptom, Relief, Minutes Post-Treatment [3]: 86%
Symptom Free, Minutes Post-Treatment [4]: 80%
Symptom, Relief, Minutes Post-Treatment [4]: 94%
24-hr. Recur Rate [5]: 0%
After Effects [5]: 0%
Symptom Free, Minutes Post-Treatment [6]: 16%
Symptom, Relief, Minutes Post-Treatment [6]: 16%
Symptom Free, Minutes Post-Treatment [7]: 52%
Symptom, Relief, Minutes Post-Treatment [7]: 52%
Symptom Free, Minutes Post-Treatment [8]: 72%
Symptom, Relief, Minutes Post-Treatment [8]: 72%
Symptom Free, Minutes Post-Treatment [9]: 80%
Symptom, Relief, Minutes Post-Treatment [9]: 84%
Est. Rate (Migraine-All): 3 mL/s
Est. Total Dose (Migraine-All): 158 mL
Number of Doses (Migraine-All): 2 #
Single Dose Duration (Migraine-All): 29 s
Total Dose (Migraine-All): 57 s
Total Treatment Time (Migraine-All): 15 min
Est. Rate (Migraine-Mild): 3 mL/s
Est. Total Dose (Migraine-Mild): 82 mL
Number of Doses (Migraine-Mild): 1 #
Single Dose Duration (Migraine-Mild): 23 s
Total Dose (Migraine-Mild): 30 s
Total Treatment Time (Migraine-Mild): 1 min
Est. Rate (Migraine-Severe): 3 mL/s
Est. Total Dose (Migraine-Severe): 233 mL
Number of Doses (Migraine-Severe): 2 #
Single Dose Duration (Migraine-Severe): 35 s
Total Dose (Migraine-Severe): 83 s
Total Treatment Time (Migraine-Severe): 28 min
24-hr. Recur Rate (Migraine, mild, severe): 0%
After Effects (Migraine, mild, severe): 0%
Symptom Free, Minutes Post-Treatment [10]: 60%
Symptom, Relief, Minutes Post-Treatment [10]: 60%
Symptom Free, Minutes Post-Treatment [11]: 60%
Symptom, Relief, Minutes Post-Treatment [11]: 60%
Symptom Free, Minutes Post-Treatment [12]: 60%
Symptom, Relief, Minutes Post-Treatment [12]: 60%
Symptom Free, Minutes Post-Treatment [13]: 90%
Symptom, Relief, Minutes Post-Treatment [13]: 90%
24-hr. Recur Rate [14]: 0%
After Effects [14]: 0%
Symptom Free, Minutes Post-Treatment [15]: 25%
Symptom, Relief, Minutes Post-Treatment [15]: 25%
Symptom Free, Minutes Post-Treatment [16]: 25%
Symptom, Relief, Minutes Post-Treatment [16]: 25%
Symptom Free, Minutes Post-Treatment [17]: 25%
Symptom, Relief, Minutes Post-Treatment [17]: 25%
Symptom Free, Minutes Post-Treatment [18]: 75%
Symptom, Relief, Minutes Post-Treatment [18]: 100%
Est. Rate (Tension-All): 4 mL/s
Est. Total Dose (Tension-All): 122 mL
Number of Doses (Tension-All): 3 #
Single Dose Duration (Tension-All): 8 s
Total Dose (Tension-All): 24 s
Total Treatment Time (Tension-All): 6 min
Est. Rate (Tension-Mild): 3 mL/s
Est. Total Dose (Tension-Mild): 28 mL
Number of Doses (Tension-Mild): 2 #
Single Dose Duration (Tension-Mild): 3 s
Total Dose (Tension-Mild): 6 s
Total Treatment Time (Tension-Mild): 2 min
Est. Rate (Tension-Moderate): 4 mL/s
Est. Total Dose (Tension-Moderate): 50 mL
Number of Doses (Tension-Moderate): 2 #
Single Dose Duration (Tension-Moderate): 6 s
Total Dose (Tension-Moderate): 11 s
Total Treatment Time (Tension-Moderate): 4 min
Est. Rate (Tension-Severe): 5 mL/s
Est. Total Dose (Tension-Severe): 288 mL
Number of Doses (Tension-Severe): 4 #
Single Dose Duration (Tension-Severe): 15 s
Total Dose (Tension-Severe): 56 s
Total Treatment Time (Tension-Severe): 11 min
24-hr. Recur Rate (Tension, mild, severe): 0%
After Effects (Tension, mild, severe): 0%
Symptom Free, Minutes Post-Treatment [19]: 20%
Symptom, Relief, Minutes Post-Treatment [19]: 20%
Symptom Free, Minutes Post-Treatment [20]: 64%
Symptom, Relief, Minutes Post-Treatment [20]: 64%
Symptom Free, Minutes Post-Treatment [21]: 80%
Symptom, Relief, Minutes Post-Treatment [21]: 96%
Symptom Free, Minutes Post-Treatment [22]: 80%
Symptom, Relief, Minutes Post-Treatment [22]: 96%
24-hr. Recur Rate (Tension, severe - IHS criteria): 0%
After Effects (Tension, severe - IHS criteria): 0%
Symptom Free, Minutes Post-Treatment [23]: 14%
Symptom, Relief, Minutes Post-Treatment [23]: 14%
Symptom Free, Minutes Post-Treatment [24]: 55%
Symptom, Relief, Minutes Post-Treatment [24]: 55%
Symptom Free, Minutes Post-Treatment [25]: 77%
Symptom, Relief, Minutes Post-Treatment [25]: 77%
Symptom Free, Minutes Post-Treatment [26]: 80% and 77%
Symptom, Relief, Minutes Post-Treatment [26]: 77%
headache outcome in an individual subject (all subsequent mild and severe migraines, two to three doses for 25 sec each=120 ml): completely eliminate
dose dependence of the treatment (analysis of the headache and allergy therapy data (Table IV)): dose dependent
headache outcome in an individual subject (at onset of a migraine, doses twice for 20 to 25 seconds): completely aborts the migraine and it does not recur
adverse after effects of treatment (headache subjects): no subjects reported any adverse after effects
onset of symptom relief (headache, while administering the first dose): immediate onset of symptom relief within seconds
efficacy (migraine and tension-type headache, occurring in seconds to minutes): 80-94%
range of average dose duration (migraine headaches): 30 to 83 s
range of volume of gas (migraine headaches): 82 to 233 mL
headache outcome in an individual subject (mild migraine, first use of device, one dose for 30 sec=60 ml): unable to improve
headache outcome in an individual subject (moderate tension headache, one dose of 1 sec=2 ml): no success
headache outcome in an individual subject (severe jaw/tooth ache, three doses of 45 sec each=675 ml): completely eliminate
headache outcome in an individual subject (severe tension headache, three doses of 15 sec each=225 ml): completely eliminate
headache outcome in an individual subject (severe tension headaches, three occasions, six doses of 8 sec each=240 ml): only moderate success
range of average dose duration (tension-type headaches): 6 to 56 s
range of volume of gas (tension-type headaches): 28 to 288 mL
